Consider three molecules from ChEMBL document CHEMBL4033758, “Systematic Data Mining Reveals Synergistic H3R/MCHR1 Ligands” (ACS Med Chem Lett, 2017).

By Ki is commonly meant the equilibrium dissociation constant of an inhibitor or competing ligand from its target. High values mean weaker binding, low ones tighter binding.

The target in the test is Histamine H3 receptor (Homo sapiens, UniProt Q9Y5N1). Nature of the test: Displacement of [3H]-N-alpha-methylhistamine from human H3R expressed in HEK293 cell membranes after 90 mins by liquid scintillation counting analysis.
Histamine H3 receptor, sequence (Q9Y5N1 whole entry): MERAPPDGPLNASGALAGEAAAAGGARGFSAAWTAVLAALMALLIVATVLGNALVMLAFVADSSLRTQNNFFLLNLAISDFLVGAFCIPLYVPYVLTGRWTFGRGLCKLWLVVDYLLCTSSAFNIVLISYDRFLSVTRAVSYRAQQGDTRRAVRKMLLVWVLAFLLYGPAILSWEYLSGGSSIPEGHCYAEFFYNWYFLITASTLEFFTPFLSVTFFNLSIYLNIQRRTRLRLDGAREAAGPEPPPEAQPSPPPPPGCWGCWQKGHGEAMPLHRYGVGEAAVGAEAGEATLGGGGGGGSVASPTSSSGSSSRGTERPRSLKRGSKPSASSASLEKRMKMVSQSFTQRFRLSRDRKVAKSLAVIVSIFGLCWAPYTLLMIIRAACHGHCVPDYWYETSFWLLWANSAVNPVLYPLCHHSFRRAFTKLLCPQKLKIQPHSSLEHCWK
`CCN1CCN(c2cc(C)c3cc(NC(=O)/C=C/c4ccc(OC)cc4)ccc3n2)CC1` returned a Ki of 10.6 nM.
The molecule `COc1cc(-n2cnc3cc(-c4ccc(Cl)cc4)sc3c2=O)ccc1OCCN1CCCC1` yielded a Ki of 208 nM.
As for `O=c1cc(OCc2ccc(F)cc2)ccn1-c1ccc(OCCN2CCCC2)cc1`, the Ki turned out to be 517 nM.
